We go through 4 compounds from patent publication EP0749962B1, “6-substituted-1,2,3,4-tetrahydro-9H-carbazoles and 7-substituted-10H-cyclohepta(7,6-B)indoles” (ELI LILLY AND COMPANY, priority 1995, dated 1996).

SMILES strings stand for the structures. Counter-ions that a name gives are not always drawn. Like-named read-outs stand apart in the source and are kept apart here.

In one assay the target is T1, 5-HT1F receptor (Homo sapiens, UniProt P30939).
T1 construct: expressed in transfected cells; host or cells: Ltk- cells (mouse fibroblasts)
T1 sequence (P30939 1-366): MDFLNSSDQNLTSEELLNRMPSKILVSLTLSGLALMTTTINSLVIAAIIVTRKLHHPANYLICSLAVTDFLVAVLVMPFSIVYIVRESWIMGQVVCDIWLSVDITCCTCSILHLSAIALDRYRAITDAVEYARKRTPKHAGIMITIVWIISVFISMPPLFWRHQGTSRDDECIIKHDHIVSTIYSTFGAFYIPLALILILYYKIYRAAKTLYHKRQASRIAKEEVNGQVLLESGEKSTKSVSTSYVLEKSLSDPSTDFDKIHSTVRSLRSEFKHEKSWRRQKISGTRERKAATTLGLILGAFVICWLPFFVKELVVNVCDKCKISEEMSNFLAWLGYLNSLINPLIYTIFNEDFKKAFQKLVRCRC
Put plainly: [3H]5-HT radioligand binding to the cloned 5-HT1F receptor (membranes of transfected Ltk- cells).

Assay [1] concerns neuronal protein extravasation. Nature of the assay: Neuronal (dural) protein extravasation after electrical stimulation of the trigeminal ganglion. In kind it is in vivo, Harlan Sprague-Dawley rats or guinea pigs. Conditions: 10 minutes before trigeminal ganglion stimulation, ID50 approximated from dose-response curve, species of the table not stated (rats or guinea pigs). The protocol:
Harlan Sprague-Dawley rats (225-325 g) or guinea pigs from Charles River Laboratories (225-325 g) were anesthetized with sodium pentobarbital intraperitoneally (65 mg/kg or 45 mg/kg respectively) and placed in a stereotaxic frame (David Kopf Instruments) with the incisor bar set at -3.5 mm for rats or -4.0 mm for guinea pigs. Following a midline sagital scalp incision, two pairs of bilateral holes were drilled through the skull (6 mm posteriorly, 2.0 and 4.0 mm laterally in rats; 4 mm posteriorly and 3.2 and 5.2 mm laterally in guinea pigs, all coordinates referenced to bregma). Pairs of stainless steel stimulating electrodes (Rhodes Medical Systems, Inc.) were lowered through the holes in both hemispheres to a depth of 9 mm (rats) or 10.5 mm (guinea pigs) from dura.
The femoral vein was exposed and a dose of the test compound was injected intravenously (1 mL/kg). Approximately 7 minutes later, a 50 mg/kg dose of Evans Blue, a fluorescent dye, was also injected intravenously. The Evans Blue complexed with proteins in the blood and functioned as a marker for protein extravasation. […]
A fluorescence microscope (Zeiss) equipped with a grating monochromator and a spectrophotometer was used to quantify the amount of Evans Blue dye in each sample. An excitation wavelength of approximately 535 nm was utilized and the emission intensity at 600 nm was determined. […] This facilitated the computer-controlled movement of the stage with fluorescence measurements at 25 points (500 µm steps) on each dural sample. The mean and standard deviation of the measurements was determined by the computer.
The extravasation induced by the electrical stimulation of the trigeminal ganglion was an ipsilateral effect (i.e. occurs only on the side of the dura in which the trigeminal ganglion was stimulated). […] The ratio of the amount of extravasation in the dura from the stimulated side compared to the unstimulated side dura was calculated. […]

For another assay, the target named is T2, 5-HT1Dα (Homo sapiens, UniProt P28221).
T2 construct: expressed in transfected cells
T2 sequence (P28221 whole entry): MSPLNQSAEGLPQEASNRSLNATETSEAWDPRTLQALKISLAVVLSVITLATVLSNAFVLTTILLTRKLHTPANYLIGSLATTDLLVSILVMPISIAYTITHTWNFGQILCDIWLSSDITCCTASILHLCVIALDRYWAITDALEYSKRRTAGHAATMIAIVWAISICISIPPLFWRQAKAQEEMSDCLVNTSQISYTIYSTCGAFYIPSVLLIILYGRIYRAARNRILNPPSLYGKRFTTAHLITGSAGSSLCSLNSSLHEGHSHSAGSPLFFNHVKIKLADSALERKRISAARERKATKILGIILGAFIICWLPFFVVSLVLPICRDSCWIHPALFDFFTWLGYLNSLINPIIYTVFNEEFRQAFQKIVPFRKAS
Nature of the assay: [3H]5-HT radioligand binding to the cloned 5-HT1Dα receptor.

A further assay addresses T3, 5-HT1E (Homo sapiens, UniProt P28566).
T3 construct: expressed in transfected cells
Put plainly: [3H]5-HT radioligand binding to the cloned 5-HT1E receptor.

For another assay, the target named is 5-HT1Dβ (Homo sapiens, UniProt P28222). Nature of the assay: [3H]5-HT radioligand binding to the cloned 5-HT1Dβ receptor.
5-HT1Dβ, sequence (P28222 whole entry): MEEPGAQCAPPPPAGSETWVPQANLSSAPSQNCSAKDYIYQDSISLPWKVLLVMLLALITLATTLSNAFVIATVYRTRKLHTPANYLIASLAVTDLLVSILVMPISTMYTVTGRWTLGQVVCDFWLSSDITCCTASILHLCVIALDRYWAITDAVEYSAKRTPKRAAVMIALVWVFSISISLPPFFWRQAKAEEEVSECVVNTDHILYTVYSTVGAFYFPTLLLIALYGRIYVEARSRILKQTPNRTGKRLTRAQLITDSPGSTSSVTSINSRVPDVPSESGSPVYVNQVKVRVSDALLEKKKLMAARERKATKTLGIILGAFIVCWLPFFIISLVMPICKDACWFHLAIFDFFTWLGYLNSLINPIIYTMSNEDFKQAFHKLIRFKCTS
The mark [2] stands for this setting: cloned receptor, [3H]5-HT displacement, 37°C.

T3 sequence (P28566 whole entry): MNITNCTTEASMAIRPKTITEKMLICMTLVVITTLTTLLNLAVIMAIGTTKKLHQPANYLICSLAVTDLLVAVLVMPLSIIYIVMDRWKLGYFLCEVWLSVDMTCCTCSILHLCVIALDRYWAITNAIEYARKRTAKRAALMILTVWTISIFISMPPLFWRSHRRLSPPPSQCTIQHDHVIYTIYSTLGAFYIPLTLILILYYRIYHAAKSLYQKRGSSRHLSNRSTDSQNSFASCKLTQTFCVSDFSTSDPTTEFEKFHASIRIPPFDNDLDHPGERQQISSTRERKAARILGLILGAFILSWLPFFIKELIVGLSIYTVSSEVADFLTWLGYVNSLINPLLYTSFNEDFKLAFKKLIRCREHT
Protocol for 5-HT1F receptor: Membrane Preparation: Membranes were prepared from transfected Ltk- cells which were grown to 100% confluency. The cells were washed twice with phosphate-buffered saline, scraped from the culture dishes into 5 mL of ice-cold phosphate-buffered saline, and centrifuged at 200 x g for 5 minutes at 4°C. The pellet was resuspended in 2.5 mL of ice-cold Tris buffer (20 mM Tris HCl, pH=7.4 at 23°C, 5 mM EDTA) and homogenized with a Wheaton tissue grinder. The lysate was subsequently centrifuged at 200 x g for 5 minutes at 4°C to pellet large fragments which were discarded. The supernatant was collected and centrifuged at 40,000 x g for 20 minutes at 4°C. The pellet resulting from this centrifugation was washed once in ice-cold Tris wash buffer and resuspended in a final buffer containing 50 mM Tris HCl and 0.5 mM EDTA, pH=7.4 at 23°C. Membrane preparations were kept on ice and utilized within two hours for the radioligand binding assays.
Saturation studies were conducted using [^3H]5-HT at 12 different concentrations ranging from 0.5 nM to 100 nM. […] The binding profile of drugs in competition experiments was accomplished using 10-12 concentrations of compound. Incubation times were 30 minutes for both saturation and displacement studies based upon initial investigations which determined equilibrium binding conditions. Nonspecific binding was defined in the presence of 10 µM 5-HT. Binding was initiated by the addition of 50 µL membrane homogenates (10-20 µg). The reaction was terminated by rapid filtration through presoaked (0.5% poylethyleneimine) filters using 48R Cell Brandel Harvester (Gaithersburg, MD). Subsequently, filters were washed for 5 seconds with ice cold buffer (50 mM Tris HCl, pH=7.4 at 4°C), dried and placed into vials containing 2.5 mL Readi-Safe (Beckman, Fullerton, CA) and radioactivity was measured using a Beckman LS 5000TA liquid scintillation counter. The efficiency of counting of [^3H]5-HT averaged between 45-50%. Binding data was analyzed by computer-assisted nonlinear regression analysis (Accufit and Accucomp, Lunden Software, Chagrin Falls, OH).

By Ki is commonly meant the equilibrium dissociation constant of an inhibitor or competing ligand from its target. A high value points to a looser hold on the target. On to `Cn1cc(CCN2CCC(c3c[nH]c4ccc(F)cc34)CC2)cn1` [Compound II, 5-fluoro-3-<1-<2-<1-methyl-1H-pyrazol-4-yl>ethyl>-4-piperidinyl>-1H-indole hydrochloride], for which the Ki on 5-HT1F receptor (setting [2]) came out at 2.5 nM; at 5-HT1Dα (setting [2]), 21.7 nM; on 5-HT1E (setting [2]), 50.3 nM; at 5-HT1Dβ (setting [2]) it was 53.6 nM. Besides, the “Inhibition of Protein Extravasation i.v. ID50” value (“Inhibition” below) in assay [1] was determined as 8.6e-10 mmol/kg.

On to `O=C(O)C(=O)O.Oc1ccc2[nH]cc(C3CCNCC3)c2c1` [Compound III, 5-hydroxy-3-(4-piperidinyl)-1H-indole oxalate], for which the inhibition constant Ki worked out at 22 nM on 5-HT1F receptor, 163 nM at 5-HT1Dα, 3.9 nM on 5-HT1E and 196 nM at 5-HT1Dβ. Also, the “Inhibition” value in assay [1] was determined as 8.9e-09 mmol/kg.

For the compound `CCN(CC)C1CCc2cccc(Cl)c2C1` (stereo not shown) [Compound IV, 8-chloro-2-diethylamino-1,2,3,4-tetrahydronaphthalene hydrochloride], the Ki at 5-HT1F receptor turned out to be 129 nM; at 5-HT1Dα, 13.5 nM; on 5-HT1E, 813 nM; at 5-HT1Dβ it was 145 nM.

As for `CN(C)C1CCc2[nH]c3ccc(O)cc3c2C1` (stereo not shown) [Compound V, 6-hydroxy-3-dimethylamino-1,2,3,4-tetrahydrocarbazole], the Ki on 5-HT1F receptor (setting [2]) was found to be 10.3 nM; at 5-HT1Dα it was 791 nM; on 5-HT1E (setting [2]) it was 73.6 nM; on 5-HT1Dβ it was 1680 nM. Besides, the “Inhibition” value in assay [1] amounted to 8.7e-09 mmol/kg.
